Test results reported in patent US20060089395A1, “Nf-kb activation inhibitors” (priority 2002, published 2006).
Read-outs that look alike come from different tables or passages of the source.

Test system: NF-κ B
Test: Inhibitory activity of NF-κ B activation, luciferase reporter assay in HepG2 under TNF-α stimulation
Format: cell-based, human
Details: for inhibition at 1 µg/mL / inhibition at 10 µg/mL / inhibition at 0.1 µg/mL: Homo sapiens; for inhibition at 0.1 µg/mL: 0.1 μg/ml, read-out: Inhibitory Ratio of NF-κB Activation (%) 0.1 μg/ml
Protocol: Using a transfection reagent(Effectene; QIAGEN), the human hepatoma cell strain HepG2 was transfected with a plasmid(pNF κ B-Luc Reporter Plasmid; […]) which is integrated with an oligonucleotide having five tandem copies of NF-κ B binding sequences([…]) on a upstream region of firefly luciferase gene(Luc) according to the QIAGEN's protocol, and the cells were incubated for 6 to 24 hours. After the addition of TNF-α (40 ng/ml) in the presence or absence of a test compound, the cells were incubated for 4 hours, and intracellular luciferase activity was measured by using PicaGene LT (TOYO INK MFG Co., Ltd.) and a chemical luminescence measurement apparatus ([…]luor Plus; TECAN). The inhibitory ratio was measured as a ratio relative to the value of a luciferase activity in the absence of the test compound.

[1] = 1 μg/mL, HepG2, TNF-α (40 ng/ml), 4 hours
[2] = 10 μg/mL, HepG2, TNF-α (40 ng/ml), 4 hours
[3] = 1 μg/mL, HepG2, TNF-α (40 ng/ml), 4 hours, read-out: Inhibitory Ratio of NF-κ B Activation(%) Drug Concentration 1 μg/mL
[4] = 10 μg/mL, HepG2, TNF-α (40 ng/ml), 4 hours, read-out: Inhibitory Ratio of NF-κ B Activation(%) Drug Concentration 10 μg/mL
[5] = HepG2, 4 h, comparison table, reporter assay
[6] = HepG2, 4 h, 1 μg/ml, comparison table, reporter assay, read-out: Inhibitory Ratio of NF-κB Activation (%) 1 μg/ml
[7] = HepG2, 4 h, 10 μg/ml, comparison table, reporter assay, read-out: Inhibitory Ratio of NF-κB Activation (%) 10 μg/ml

| Structure (SMILES) | Inhibitory Ratio of NF-κ B Activation(%) Drug Concentration 1 μg/mL [1] [%] | Inhibitory Ratio of NF-κ B Activation(%) Drug Concentration 10 μg/mL [2] [%] | other results |
| --- | --- | --- | --- |
| O=C(Nc1cc(C(F)(F)F)cc(C(F)(F)F)c1)c1c(O)cccc1O [Compound No. 52] | 96.4 | 97.3 |  |
| COC(=O)C(C#N)=Cc1ccc(O)c(C(=O)Nc2cc(C(F)(F)F)cc(C(F)(F)F)c2)c1 [Compound No. 17, 3-({N-[3,5-bis(trifluoromethyl)phenyl]carbamoyl}-4-hydroxyphenyl)-2-cyanoacrylic acid methyl ester] | 74.9 | 99.1 |  |
| Cc1ccc(C)c(NC(=O)c2cc(Cl)ccc2O)c1 [Compound No. 153] | 88.3 | 97.1 |  |
| O=C(Nc1cc(C(F)(F)F)ccc1Oc1ccc(Cl)cc1)c1cc(Cl)ccc1O [Compound No. 118] | 95.0 | 99.5 |  |
| O=C(Nc1cc(C(F)(F)F)cc(C(F)(F)F)c1)c1cc(N=Nc2ccc(S(=O)(=O)Nc3ccccn3)cc2)ccc1O [Compound No. 49] | 19.4 | 89.1 |  |
| CC(C)(C)c1nc(NC(=O)c2cc(Br)ccc2O)sc1Br [Compound No. 186, 5-Bromo-N-{5-bromo-4-[(1,1-dimethyl)ethyl]thiazol-2-yl}-2-hydroxybenzamide] |  |  | inhibition at 1 µg/mL [3]: 96.5%; inhibition at 10 µg/mL [4]: 98.7% |
| COc1ccc(O)c(C(=O)Nc2cc(C(F)(F)F)cc(C(F)(F)F)c2)c1 [Compound No. 33] | 30.7 | 97.0 |  |
| CC(=O)Oc1ccccc1C(=O)Nc1cc(Cl)cc(Cl)c1 [Compound No. 121] | 92.9 | 95.5 |  |
| CC(C)C(=O)c1ccc(O)c(C(=O)Nc2cc(C(F)(F)F)cc(C(F)(F)F)c2)c1 [Compound No. 34, N-[3,5-Bis(trifluoromethyl)phenyl]-2-hydroxy-5-isobutyrylbenzamide] |  |  | inhibition at 1 µg/mL [3]: 90.7%; inhibition at 10 µg/mL [4]: 98.7% |
| O=C(Nc1cc(C(F)(F)F)ccc1Cl)c1cc(Cl)cnc1O [Compound No. 119] | 85.4 | 86.9 |  |
| O=C(Nc1cc(C(F)(F)F)cc(C(F)(F)F)c1)c1cc(Cl)cnc1O [Compound No. 75] | 58.1 | 82.2 |  |
| CC(=O)Oc1ccccc1C(=O)Nc1cc(C(F)(F)F)cc(C(F)(F)F)c1 [compound 1, 2-acetoxy-N-[3,5-bis(trifluoromethyl)phenyl]benzamide] |  |  | inhibition at 1 µg/mL [3]: 90.9%; inhibition at 10 µg/mL [4]: 97.1% |
| CC(C)(C)c1nc(NC(=O)c2cc(Br)ccc2O)sc1N1CCCCC1 [Compound No. 204, 5-Bromo-N-{4-[(1,1-dimethyl)ethyl]-5-piperidinothiazol-2-yl)-2-hydroxybenzamide] |  |  | inhibition at 1 µg/mL [3]: 93.6%; inhibition at 10 µg/mL [4]: 97.8% |
| CC(=O)Oc1ccc(Cl)cc1C(=O)Nc1cc(C(F)(F)F)cc(C(F)(F)F)c1 [compound 5] | 96.5 | 99.2 |  |
| Cc1ccc(O)c(C(=O)Nc2cc(C(C)(C)C)cc(C(C)(C)C)c2)c1 [Compound No. 147] | 38.9 | 91.0 |  |
| O=C(Nc1nc(-c2cc(C(F)(F)F)cc(C(F)(F)F)c2)cs1)c1cc(Cl)ccc1O [Compound No. 231, 5-Chloro-2-hydroxy-N-{4-[3,5-bis(trifluoromethyl)phenyl]thiazol-2-yl}benzamide] |  |  | inhibition at 1 µg/mL [3]: 95.9%; inhibition at 10 µg/mL [4]: 94.5% |
| O=C(Nc1cc(Br)cc(C(F)(F)F)c1)c1cc(Cl)ccc1O [Compound No. 104] | 97.2 | 99.2 |  |

| Structure (SMILES) | Inhibitory Ratio of NF-κ B Activation(%) Drug Concentration 1 μg/mL [1] [%] | Inhibitory Ratio of NF-κ B Activation(%) Drug Concentration 10 μg/mL [2] [%] | other results |
| --- | --- | --- | --- |
| O=C(Nc1cc(Cl)cc(Cl)c1)c1c(O)ccc2ccccc12 [Compound No. 182] | 85.3 | 90.2 |  |
| O=C(Nc1cc(N2CCOCC2)ccc1[N+](=O)[O-])c1cc(Cl)ccc1O [Compound No. 174] |  | 89.6 |  |
| O=C(Nc1cc(C(F)(F)F)ccc1[N+](=O)[O-])c1cc(Cl)ccc1O [Compound No. 91] | 86.3 | 96.7 |  |
| O=C(Nc1nc(-c2ccc(Cl)c(Cl)c2)cs1)c1cc(Cl)ccc1O [Compound No. 260, 5-Chloro-2-hydroxy-N-[4-(3,4-dichlorophenyl)thiazol-2-yl]benzamide] |  |  | inhibition at 1 µg/mL [3]: > 99.9% |
| O=C(Nc1ccccc1)c1ccc(Cl)c(NC(=O)c2cc(Cl)ccc2O)c1 [Compound No. 157] | 52.6 | 98.8 |  |
| Cc1ccc(O)c(C(=O)Nc2cc(C(F)(F)F)ccc2C(F)(F)F)c1 [Compound No. 84] | 92.6 | 96.6 |  |
| Cc1sc(NC(=O)c2cc(Br)ccc2O)nc1-c1ccccc1 [Compound No. 192] | 83.6 | 94.4 |  |
| CCc1nc(NC(=O)c2cc(Br)ccc2O)sc1-c1ccccc1 [Compound No. 196] | 28.8 | 87.6 |  |
| O=C(Nc1cc(C(F)(F)F)ccc1OCC(F)(F)F)c1cc(Cl)ccc1O [Compound No. 113] | 90.5 | 96.2 |  |
| CC(C)c1cccc(C(=O)Nc2cc(C(F)(F)F)cc(C(F)(F)F)c2)c1O [Compound No. 256, N-[3,5-bis(trifluoromethyl)phenyl]-2-hydroxy-3-isopropylbenzamide] |  |  | inhibition at 1 µg/mL [3]: 92.1% |
| COc1ccc(C(N)=O)cc1NC(=O)c1cc(Cl)ccc1O [Compound No. 163] | 92.1 | 97.4 |  |
| O=C(Nc1cc(C(F)(F)F)ccc1N1CCOCC1)c1cc(Br)ccc1O [Compound No. 98] | 81.8 | 86.4 |  |
| O=C(Nc1ccc(F)cc1F)c1cc([N+](=O)[O-])ccc1O [drawing 559, reference compound] |  |  | inhibition at 0.1 µg/mL [5]: -82.9%; inhibition at 1 µg/mL [6]: -63.8%; inhibition at 10 µg/mL [7]: 86.5% |
| CCOC(=O)c1c(NC(=O)c2cc(Cl)ccc2O)sc2c1CCCC2 [Compound No. 232] | 88.2 | 85.4 |  |
| O=C(Nc1ccc(Cl)c(Cl)c1)c1cc(Br)ccc1O [drawing 558, reference compound] |  |  | inhibition at 0.1 µg/mL [5]: 6.8%; inhibition at 1 µg/mL [6]: 88.7%; inhibition at 10 µg/mL [7]: 92.7% |
| CSc1ccc(C(F)(F)F)cc1NC(=O)c1cc(Cl)ccc1O [Compound No. 96] | 94.6 | 99.1 |  |
